Several values for one entry are separate records, joined by “and”; a condition that tells them apart may be missing. Equal values may be shown once. Read-outs that look alike come from different tables or passages of the source.
How the values were obtained:
Experiment in all cases: nanoBRET off-target validation
Assay type in all cases: cell-based
[1] = target: T1, JNK3 (Homo sapiens, UniProt P53779); conditions: JNK3, inhibitor 25000 nM, two replicates
T1 construct: host or cells: HEK293T (ATCC CRL-3216)
T1 sequence (P53779 whole entry): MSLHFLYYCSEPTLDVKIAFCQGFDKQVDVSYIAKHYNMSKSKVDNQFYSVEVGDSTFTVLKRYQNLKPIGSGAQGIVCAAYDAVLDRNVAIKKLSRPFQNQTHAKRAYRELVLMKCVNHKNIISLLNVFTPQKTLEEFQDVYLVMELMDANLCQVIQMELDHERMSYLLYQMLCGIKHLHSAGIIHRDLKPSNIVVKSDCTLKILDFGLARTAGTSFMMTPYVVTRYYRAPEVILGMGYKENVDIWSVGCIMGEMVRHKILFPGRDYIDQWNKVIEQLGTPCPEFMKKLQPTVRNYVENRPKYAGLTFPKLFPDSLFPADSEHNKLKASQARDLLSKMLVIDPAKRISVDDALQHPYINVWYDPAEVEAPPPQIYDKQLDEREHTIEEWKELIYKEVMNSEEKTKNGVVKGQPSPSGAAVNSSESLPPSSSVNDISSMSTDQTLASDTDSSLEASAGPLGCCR
Protocol: (§1) The assay was performed as described previously ([61]). In brief, full-length kinases as listed in table S6 were obtained as plasmids cloned in frame with terminal NanoLuc-fusion (gift from Promega; table S6). […] Serially diluted inhibitor and corresponding tracer as listed in table S6 at the Tracer KD concentration taken from TracerDB (tracerdb.org) ([62]) were pipetted into white 384-well plates (Greiner, 781207) using an ECHO acoustic dispenser (Labcyte). The corresponding protein-transfected cells were added and reseeded at a density of 2 × 10^5 cells/ml after trypsinization and resuspending in Opti-MEM without phenol red (Life Technologies). The system was allowed to equilibrate for 3 hours at 37°C/5% CO2 before bioluminescence resonance energy transfer (BRET) measurements. To measure BRET, NanoBRET NanoGlo Substrate + extracellular NanoLuc Inhibitor (Promega, N2540) was added as per the manufacturer’s protocol, and filtered luminescence was measured on a PHERAstar plate reader (BMG Labtech) equipped with a luminescence filter pair [450-nm BP filter (donor) and 610-nm LP filter (acceptor)]. […] (For step-by-step protocol, see www.eubopen.org/sites/www.eubopen.org/files/attachments/2021/NanoBRET-IC50_v1_0.pdf.)

[2] = target: T2, SLK (Homo sapiens, UniProt Q9H2G2)
T2 construct: host or cells: HEK293T (ATCC CRL-3216)
T2 sequence (Q9H2G2 whole entry): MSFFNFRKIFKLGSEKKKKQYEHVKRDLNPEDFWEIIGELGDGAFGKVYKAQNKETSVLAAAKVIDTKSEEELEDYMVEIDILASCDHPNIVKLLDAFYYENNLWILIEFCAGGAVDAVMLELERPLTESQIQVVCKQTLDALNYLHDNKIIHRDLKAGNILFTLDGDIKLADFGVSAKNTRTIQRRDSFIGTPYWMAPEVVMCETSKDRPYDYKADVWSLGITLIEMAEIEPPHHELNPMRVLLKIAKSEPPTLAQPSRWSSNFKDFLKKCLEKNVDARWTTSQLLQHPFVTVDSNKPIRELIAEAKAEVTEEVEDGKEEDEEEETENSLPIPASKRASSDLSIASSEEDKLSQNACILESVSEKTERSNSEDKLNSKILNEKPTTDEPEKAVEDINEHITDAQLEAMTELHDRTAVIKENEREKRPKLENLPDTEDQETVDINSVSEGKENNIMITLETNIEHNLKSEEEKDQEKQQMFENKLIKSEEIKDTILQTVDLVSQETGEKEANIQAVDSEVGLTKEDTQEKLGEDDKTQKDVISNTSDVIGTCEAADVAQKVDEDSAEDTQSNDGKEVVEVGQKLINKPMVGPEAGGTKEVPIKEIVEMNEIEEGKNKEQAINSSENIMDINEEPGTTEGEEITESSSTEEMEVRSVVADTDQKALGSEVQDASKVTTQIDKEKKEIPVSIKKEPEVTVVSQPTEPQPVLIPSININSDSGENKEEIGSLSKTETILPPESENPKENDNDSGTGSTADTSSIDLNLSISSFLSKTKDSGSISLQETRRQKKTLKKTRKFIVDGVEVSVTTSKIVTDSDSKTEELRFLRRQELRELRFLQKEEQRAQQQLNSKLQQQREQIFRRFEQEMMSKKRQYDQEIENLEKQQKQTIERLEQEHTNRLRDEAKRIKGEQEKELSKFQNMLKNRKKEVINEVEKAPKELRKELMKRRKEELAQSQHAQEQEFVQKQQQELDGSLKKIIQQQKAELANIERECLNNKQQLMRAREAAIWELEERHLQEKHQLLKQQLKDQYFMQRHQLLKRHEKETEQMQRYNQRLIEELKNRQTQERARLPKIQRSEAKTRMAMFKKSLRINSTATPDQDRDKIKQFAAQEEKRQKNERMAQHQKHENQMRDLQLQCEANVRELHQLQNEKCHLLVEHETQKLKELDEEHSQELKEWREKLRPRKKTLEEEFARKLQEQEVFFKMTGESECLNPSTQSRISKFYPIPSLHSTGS
Protocol: as §1

[3] = target: T3, STK17B (Homo sapiens, UniProt O94768)
T3 construct: host or cells: HEK293T (ATCC CRL-3216)
T3 sequence (O94768 1-372): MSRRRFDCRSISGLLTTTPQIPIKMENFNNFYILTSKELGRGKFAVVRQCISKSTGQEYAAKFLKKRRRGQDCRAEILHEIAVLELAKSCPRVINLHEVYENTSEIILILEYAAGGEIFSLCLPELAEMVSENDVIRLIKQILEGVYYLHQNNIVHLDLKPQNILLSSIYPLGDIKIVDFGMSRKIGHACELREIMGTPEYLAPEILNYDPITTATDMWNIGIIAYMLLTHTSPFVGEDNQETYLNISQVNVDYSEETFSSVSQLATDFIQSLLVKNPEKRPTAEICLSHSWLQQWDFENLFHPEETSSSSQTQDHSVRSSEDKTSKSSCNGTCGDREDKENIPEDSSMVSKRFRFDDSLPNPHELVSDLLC
Protocol: as §1

In the case of `CCSc1nc(NC)c2c(-c3cccc(NC(=O)Nc4cc(C(C)(C)C)nn4-c4ccc(C)cc4)c3)c[nH]c2n1` [Compound 32], the “nanoBRET response normalized to 0% (no tracer) and 100% (no inhibitor) control” value ([1]; listed as RN341, 25 µM) is reported as 34.5338%, the remaining nanoBRET tracer signal at 25 µM ([1]; read-out: nanoBRET response normalized to 0% (no tracer) and 100% (no inhibitor) control) is reported as 48.6% and the EC50 [2] is reported as over 20 µM. The “nanoBRET response normalized to 0% (no tracer) and 100% (no inhibitor) control” value ([2]; SLK, inhibitor 8 nM, two replicates, listed as RN341, 0.008 µM) was 107.417%, the NanoBRET tracer signal (% of no-inhibitor control) at 0.008 µM ([2]; SLK, inhibitor 8 nM, two replicates, read-out: nanoBRET response normalized to 0% (no tracer) and 100% (no inhibitor) control) was 106% and the “nanoBRET response normalized to 0% (no tracer) and 100% (no inhibitor) control” value ([2]; SLK, inhibitor 16 nM, two replicates, listed as RN341, 0.016 µM) was 115.381%. For the same molecule, the NanoBRET tracer signal (% of no-inhibitor control) at 0.016 µM ([2]; SLK, inhibitor 16 nM, two replicates, read-out: nanoBRET response normalized to 0% (no tracer) and 100% (no inhibitor) control) was 113%, the NanoBRET tracer signal (% of no-inhibitor control) at 0.05 µM ([2]; SLK, inhibitor 50 nM, two replicates, read-out: nanoBRET response normalized to 0% (no tracer) and 100% (no inhibitor) control) was 102% and 106% and the “nanoBRET response normalized to 0% (no tracer) and 100% (no inhibitor) control” value ([2]; SLK, inhibitor 250 nM, two replicates, listed as RN341, […]) was 119.576%. The NanoBRET tracer signal (% of no-inhibitor control) at […] ([2]; SLK, inhibitor 250 nM, two replicates, read-out: nanoBRET response normalized to 0% (no tracer) and 100% (no inhibitor) control) was 107%, the “nanoBRET response normalized to 0% (no tracer) and 100% (no inhibitor) control” value ([2]; SLK, inhibitor 500 nM, two replicates, listed as RN341, 0.5 µM) was 122.526% and the NanoBRET tracer signal (% of no-inhibitor control) at 0.5 µM ([2]; SLK, inhibitor 500 nM, two replicates, read-out: nanoBRET response normalized to 0% (no tracer) and 100% (no inhibitor) control) was 118%. The “nanoBRET response normalized to 0% (no tracer) and 100% (no inhibitor) control” value ([2]; SLK, inhibitor 2500 nM, two replicates, listed as RN341, […]) was 114.832%, the NanoBRET tracer signal (% of no-inhibitor control) at […] ([2]; SLK, inhibitor 2500 nM, two replicates, read-out: nanoBRET response normalized to 0% (no tracer) and 100% (no inhibitor) control) was 117% and the “nanoBRET response normalized to 0% (no tracer) and 100% (no inhibitor) control” value ([2]; SLK, inhibitor 5000 nM, two replicates, listed as RN341, 5 µM) was 116.499%. The NanoBRET tracer signal (% of no-inhibitor control) at 5 µM ([2]; SLK, inhibitor 5000 nM, two replicates, read-out: nanoBRET response normalized to 0% (no tracer) and 100% (no inhibitor) control) was 105%, the “nanoBRET response normalized to 0% (no tracer) and 100% (no inhibitor) control” value ([2]; SLK, inhibitor 25000 nM, two replicates, listed as RN341, 25 µM) was 86.6362% and the NanoBRET tracer signal (% of no-inhibitor control) at 25 µM ([2]; SLK, inhibitor 25000 nM, two replicates, read-out: nanoBRET response normalized to 0% (no tracer) and 100% (no inhibitor) control) was 83.9%. For the same molecule, the EC50 [3] was at least 20 µM, the “nanoBRET response normalized to 0% (no tracer) and 100% (no inhibitor) control” value ([3]; STK17B, inhibitor 8 nM, two replicates, listed as RN341, 0.008 µM) was 97.0874% and the NanoBRET tracer signal (% of no-inhibitor control) at 0.008 µM ([3]; STK17B, inhibitor 8 nM, two replicates, read-out: nanoBRET response normalized to 0% (no tracer) and 100% (no inhibitor) control) was 97.6%. For the same molecule, the “nanoBRET response normalized to 0% (no tracer) and 100% (no inhibitor) control” value ([3]; STK17B, inhibitor 16 nM, two replicates, listed as RN341, 0.016 µM) was 82.8095%, the NanoBRET tracer signal (% of no-inhibitor control) at 0.016 µM ([3]; STK17B, inhibitor 16 nM, two replicates, read-out: nanoBRET response normalized to 0% (no tracer) and 100% (no inhibitor) control) was 94.7% and the “nanoBRET response normalized to 0% (no tracer) and 100% (no inhibitor) control” value ([3]; STK17B, inhibitor 50 nM, two replicates, listed as RN341, 0.05 µM) was 109.03%. For the same molecule, the NanoBRET tracer signal (% of no-inhibitor control) at 0.05 µM ([3]; STK17B, inhibitor 50 nM, two replicates, read-out: nanoBRET response normalized to 0% (no tracer) and 100% (no inhibitor) control) was 112%, the “nanoBRET response normalized to 0% (no tracer) and 100% (no inhibitor) control” value ([3]; STK17B, inhibitor 250 nM, two replicates, listed as RN341, […]) was 93.8885% and the NanoBRET tracer signal (% of no-inhibitor control) at […] ([3]; STK17B, inhibitor 250 nM, two replicates, read-out: nanoBRET response normalized to 0% (no tracer) and 100% (no inhibitor) control) was 111%. For the same molecule, the “nanoBRET response normalized to 0% (no tracer) and 100% (no inhibitor) control” value ([3]; STK17B, inhibitor 500 nM, two replicates, listed as RN341, 0.5 µM) was 103.232% and 77.6568%, the NanoBRET tracer signal (% of no-inhibitor control) at […] ([3]; STK17B, inhibitor 2500 nM, two replicates, read-out: nanoBRET response normalized to 0% (no tracer) and 100% (no inhibitor) control) was 122% and 101% and the “nanoBRET response normalized to 0% (no tracer) and 100% (no inhibitor) control” value ([3]; STK17B, inhibitor 5000 nM, two replicates, listed as RN341, 5 µM) was 104.626% and 83.1368%. The “nanoBRET response normalized to 0% (no tracer) and 100% (no inhibitor) control” value ([3]; STK17B, inhibitor 25000 nM, two replicates, listed as RN341, 25 µM) was 75.7774% and the NanoBRET tracer signal (% of no-inhibitor control) at 25 µM ([3]; STK17B, inhibitor 25000 nM, two replicates, read-out: nanoBRET response normalized to 0% (no tracer) and 100% (no inhibitor) control) was 80.3%.
